Measurements taken from PubChem BioAssay AID2060886 (Molecular Pharmacology Branch, DTP, NCI, 2025).

Tested on: 653999-131-R-J2-PDC complex spheroids, growth inhibition
Assay: Anticancer human tumor 653999-131-R-J2-PDC patient-derived lung adenocarcinoma cell line growth inhibition [RAS]
Conditions: for IC50: curve of first compound; for viability, T/C: stronger effect = lower value
Outline: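 Tumour cells grown as complex spheroids with HUVEC endothelial cells and mesenchymal stem cells, treated with RAS pathway inhibitor combinations. Each agent spans half-log steps from near clinical Cmax, or 10 microM where Cmax is unknown.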
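Also: spheroids exposed to the agents for seven days before the readout.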

## CC(Nc1ccc2c(c1)OCCn1cc(N3C(=O)OCC3C(F)F)nc1-2)C(N)=O (centres undefined) + CCn1c(-c2cc(N3CCN(C)CC3)cnc2C(C)OC)c2c3cc(ccc31)-c1csc(n1)CC(NC(=O)C1CC1C)C(=O)N1CCCC(N1)C(=O)OCC(C)(C)C2
Second compound 0.000949 µM
  IC50: 160 nM
Second compound 0.003 µM
  IC50: 152 nM
Second compound 0.00949 µM
  IC50: < 31.6 nM
Second compound 0.03 µM
  IC50: < 31.6 nM
Second compound 0.0949 µM
  IC50: < 31.6 nM
Second compound 0.3 µM
  IC50: < 31.6 nM
Second compound 0.000949 µM, first compound 0.0316 µM
  viability, T/C: 72.8%
Second compound 0.000949 µM, first compound 0.1 µM
  viability, T/C: 57.9%
Second compound 0.000949 µM, first compound 0.316 µM
  viability, T/C: 37.4%
Second compound 0.000949 µM, first compound 1 µM
  viability, T/C: 33.5%
Second compound 0.000949 µM, first compound 3.16 µM
  viability, T/C: 24.9%
Second compound 0.000949 µM, first compound 10 µM
  viability, T/C: 18.5%
Second compound 0.003 µM, first compound 0.0316 µM
  viability, T/C: 60%
Second compound 0.003 µM, first compound 0.1 µM
  viability, T/C: 56.5%
Second compound 0.003 µM, first compound 0.316 µM
  viability, T/C: 38.9%
Second compound 0.003 µM, first compound 1 µM
  viability, T/C: 35.6%
Second compound 0.003 µM, first compound 3.16 µM
  viability, T/C: 17.2%
Second compound 0.003 µM, first compound 10 µM
  viability, T/C: 13.2%
Second compound 0.00949 µM, first compound 0.0316 µM
  viability, T/C: 37.8%
Second compound 0.00949 µM, first compound 0.1 µM
  viability, T/C: 32.8%
Second compound 0.00949 µM, first compound 0.316 µM
  viability, T/C: 29.7%
Second compound 0.00949 µM, first compound 1 µM
  viability, T/C: 19.1%
Second compound 0.00949 µM, first compound 3.16 µM
  viability, T/C: 16.3%
Second compound 0.00949 µM, first compound 10 µM
  viability, T/C: 10.7%
Second compound 0.03 µM, first compound 0.0316 µM
  viability, T/C: 34.5%
Second compound 0.03 µM, first compound 0.1 µM
  viability, T/C: 27.7%
Second compound 0.03 µM, first compound 0.316 µM
  viability, T/C: 21.2%
Second compound 0.03 µM, first compound 1 µM
  viability, T/C: 12%
Second compound 0.03 µM, first compound 3.16 µM
  viability, T/C: 11.2%
Second compound 0.03 µM, first compound 10 µM
  viability, T/C: 6.45%
Second compound 0.0949 µM, first compound 0.0316 µM
  viability, T/C: 27.4%
Second compound 0.0949 µM, first compound 0.1 µM
  viability, T/C: 19.4%
Second compound 0.0949 µM, first compound 0.316 µM
  viability, T/C: 12%
Second compound 0.0949 µM, first compound 1 µM
  viability, T/C: 13%
Second compound 0.0949 µM, first compound 3.16 µM
  viability, T/C: 8.97%
Second compound 0.0949 µM, first compound 10 µM
  viability, T/C: 5.82%
Second compound 0.3 µM, first compound 0.0316 µM
  viability, T/C: 20.6%
Second compound 0.3 µM, first compound 0.1 µM
  viability, T/C: 14.2%
Second compound 0.3 µM, first compound 0.316 µM
  viability, T/C: 12.9%
Second compound 0.3 µM, first compound 1 µM
  viability, T/C: 8.03%
Second compound 0.3 µM, first compound 3.16 µM
  viability, T/C: 7.08%
Second compound 0.3 µM, first compound 10 µM
  viability, T/C: 4.92%

## C[C@@H](NC(=O)c1ncnc(N)c1Cl)c1ncc(C(=O)Nc2cc(C(F)(F)F)c(Cl)cn2)s1 + C#Cc1c(F)ccc2cc(O)cc(-c3ncc4c(N5CC6CCC(C5)N6)nc(OCC56CCCN5CC(F)C6)nc4c3F)c12
Second compound 0.0316 µM
  IC50: > 10000 nM
Second compound 0.1 µM
  IC50: > 10000 nM
Second compound 0.316 µM
  IC50: > 10000 nM
Second compound 1 µM
  IC50: > 10000 nM
Second compound 3.16 µM
  IC50: < 31.6 nM
Second compound 10 µM
  IC50: < 31.6 nM
Second compound 0.0316 µM, first compound 0.0316 µM
  viability, T/C: 102%
Second compound 0.0316 µM, first compound 0.1 µM
  viability, T/C: 109%
Second compound 0.0316 µM, first compound 0.316 µM
  viability, T/C: 102%
Second compound 0.0316 µM, first compound 1 µM
  viability, T/C: 100%
Second compound 0.0316 µM, first compound 3.16 µM
  viability, T/C: 100%
Second compound 0.0316 µM, first compound 10 µM
  viability, T/C: 73.5%
Second compound 0.1 µM, first compound 0.0316 µM
  viability, T/C: 91%
Second compound 0.1 µM, first compound 0.1 µM
  viability, T/C: 91.6%
Second compound 0.1 µM, first compound 0.316 µM
  viability, T/C: 90%
Second compound 0.1 µM, first compound 1 µM
  viability, T/C: 78.3%
Second compound 0.1 µM, first compound 3.16 µM
  viability, T/C: 71%
Second compound 0.1 µM, first compound 10 µM
  viability, T/C: 77.2%
Second compound 0.316 µM, first compound 0.0316 µM
  viability, T/C: 77.2%
Second compound 0.316 µM, first compound 0.1 µM
  viability, T/C: 75%
Second compound 0.316 µM, first compound 0.316 µM
  viability, T/C: 87.8%
Second compound 0.316 µM, first compound 1 µM
  viability, T/C: 75%
Second compound 0.316 µM, first compound 3.16 µM
  viability, T/C: 88.3%
Second compound 0.316 µM, first compound 10 µM
  viability, T/C: 69.1%
Second compound 1 µM, first compound 0.0316 µM
  viability, T/C: 44.5%
Second compound 1 µM, first compound 0.1 µM
  viability, T/C: 68.3%
Second compound 1 µM, first compound 0.316 µM
  viability, T/C: 72.5%
Second compound 1 µM, first compound 1 µM
  viability, T/C: 44.6%
Second compound 1 µM, first compound 3.16 µM
  viability, T/C: 60.1%
Second compound 1 µM, first compound 10 µM
  viability, T/C: 54.7%
Second compound 3.16 µM, first compound 0.0316 µM
  viability, T/C: 40.3%
Second compound 3.16 µM, first compound 0.1 µM
  viability, T/C: 39.7%
Second compound 3.16 µM, first compound 0.316 µM
  viability, T/C: 37%
Second compound 3.16 µM, first compound 1 µM
  viability, T/C: 44.9%
Second compound 3.16 µM, first compound 3.16 µM
  viability, T/C: 51.5%
Second compound 3.16 µM, first compound 10 µM
  viability, T/C: 41.8%
Second compound 10 µM, first compound 0.0316 µM
  viability, T/C: 22%
Second compound 10 µM, first compound 0.1 µM
  viability, T/C: 21.2%
Second compound 10 µM, first compound 0.316 µM
  viability, T/C: 49.3%
Second compound 10 µM, first compound 1 µM
  viability, T/C: 45.9%
Second compound 10 µM, first compound 3.16 µM
  viability, T/C: 30.5%
Second compound 10 µM, first compound 10 µM
  viability, T/C: 22%
